Source: the NIST ThermoML archive (doi:10.1016/j.jct.2011.06.020)

Experiment: refractive index (Na D-line) (dimensionless); xn = mol fraction of the nth substance listed
Settings: 101 kPa, Liquid, Standard Abbe refractometry

CN1CCNCC1 [N-methylpiperazine] + O
refractive index
Settings | 293.15 K | 298.15 K | 303.15 K | 308.15 K | 313.15 K | 323.15 K | 328.15 K | 333.15 K
x1 = 0.0521 | 1.374 | 1.373 | 1.373 | 1.372 | 1.371 | 1.369 | 1.368 | 1.366
x1 = 0.0725 | 1.389 | 1.388 | 1.387 | 1.386 | 1.384 | 1.382 | 1.381 | 1.379
x1 = 0.1039 | 1.406 | 1.405 | 1.403 | 1.402 | 1.401 | 1.397 | 1.396 | 1.396
x1 = 0.2091 | 1.44 | 1.438 | 1.436 | 1.434 | 1.432 | 1.428 | 1.427 | 1.425
x1 = 0.3101 | 1.453 | 1.451 | 1.449 | 1.447 | 1.445 | 1.441 | 1.439 | 1.437
x1 = 0.4096 | 1.459 | 1.457 | 1.455 | 1.453 | 1.451 | 1.446 | 1.444 | 1.442
x1 = 0.5109 | 1.462 | 1.46 | 1.458 | 1.456 | 1.454 | 1.449 | 1.447 | 1.445
x1 = 0.608 | 1.464 | 1.462 | 1.46 | 1.457 | 1.455 | 1.451 | 1.448 | 1.446
x1 = 0.7065 | 1.465 | 1.463 | 1.461 | 1.458 | 1.456 | 1.451 | 1.449 | 1.447
x1 = 0.8069 | 1.466 | 1.463 | 1.461 | 1.459 | 1.456 | 1.452 | 1.449 | 1.447
x1 = 0.8819 | 1.466 | 1.464 | 1.461 | 1.459 | 1.457 | 1.452 | 1.449 | 1.447
x1 = 1 | 1.466 | 1.464 | 1.461 | 1.459 | 1.457 | 1.452 | 1.449 | 1.447
